These results are taken from US5891913A, “Ophthalmic and aural compositions containing diclofenac potassium” (priority 1994, dated 1999).

Structures are written as SMILES. “Also recorded” adds a separate entry of the source.

A short description of data set [1]: Lens penetration and ocular distribution of 14-C labelled eye drops after multiple topical ocular administration. The data set is classed as in vivo, chinchilla pigmented rabbits. The protocol:
In a first animal model, the ocular distribution and lens penetration of diclofenac potassium and diclofenac sodium is determined after multiple topical ocular administration of a corresponding eye drop composition. […] At regular intervals post-instillation (0.5, 1.5, 2.0 hours), the animals are sacrificed and both eyes are removed. Said eyes are microdissected and the ocular distribution of the radioactivity is measured by a standard scintillation beta counting method.
Lens penetration and ocular distribution of diclofenac potassium and diclofenac sodium were determined after multiple topical ocular administration of corresponding 14-C labelled eye drop composition into the conjunctival sac of the right eye of pigmented rabbits.
At 0.5, 1.5, 2 hours post-instillation, 5 animals for each time-point and each treatment group were sacrificed and the radioactivity content (in ng-Eq/g of structure) in the cornea, aqueous humor, iris-ciliary body, vitreous, whole blood and plasma was measured. At 2 hours post-instillation, the left eyes were removed and the ocular distribution was measured by a standard scintillation beta counting method. The right lenses were used for autoradiography.
The areas under the curve (AUC: ng-Eq/g of structure versus time) were calculated and statistically compared.

The next data set has as its system eye. Kind of data set: Pharmacological studies: topical (ocular) tolerance, efficacy, onset and duration of action.
Data set [2] has as its system arachidonic acid induced uveitis. Kind of data set: Arachidonic acid induced uveitis, aqueous flare by laser cell flare meter (LCFM).
The next data set concerns uveitis. Put plainly: Uveitis models in rabbits (all the aforementioned animal models: arachidonic acid, argon laser iris photocoagulation, paracentesis). In kind it is in vivo, pigmented rabbits. The conditions noted are these: compared to diclofenac sodium. Here is the method:
Uveitis is induced in said model by an argon laser iris photocoagulation in pigmented rabbits. Said iris photocoagulation is induced by 500 μm argon laser burns (power 750 mW, duration 0.1 sec). The inflammatory processes resulting therefrom are measured every 30 minutes after the laser induced photo-coagulation, by using the laser cell flare meter (LCFM) technique.
In addition to the non invasive LCFM evaluation of the above mentioned animal model, an invasive evaluation is carried out. Therefore the rabbits are sacrificed one hour and in regular intervals after which said eyes have been subjected to the traumatic uveitis by photocoagulation, and the aqueous humor of said rabbit eyes is sampled. The aqueous protein levels, cell counts and prostaglandins (PGE2, PGD2, 6-keto PGF1α) which represent the degree of an inflammation are biochemically investigated and quantified.
Another animal model is used for the induction of a traumatic uveitis. It is the induction of a uveitis by the paracentesis of the anterior chamber of the rabbit eye. In analogy to the previously described laser induced uveitis model, drugs to be tested, are again administred prior to the paracentesis challenge. […] The aqueous protein levels are again analyzed, quantified and then correlated with the degree of an inflammation.

Take `O=C(O)Cc1ccccc1Nc1c(Cl)cccc1Cl` [diclofenac potassium, potassium 2-[(2,6-dichlorophenyl)amino]-phenyl acetate]: the “ocular penetration / levels of radioactivity (in words)” value in data set [1] (in comparison to diclofenac sodium, acetate) was “much superior; also recorded: clearly displayed higher levels of radioactivity”. For the same compound, the “ocular distribution, order of concentrations (in words)” value in data set [1] (rabbit, in vivo) is “highest concentrations are found in the cornea, and in descending order in the aqueous humor, in the iris ciliary body and in the vitreous”. Moreover, in the data set with eye (e.g. in the eye), the “duration of action (in words)” value is listed as “long lasting duration of action” and the “onset of action (in words)” value is given as “surprisingly short onset of action”. Further, the “topical tolerance, e.g. ocular tolerance, and efficacy (in words)” value in the data set with eye (in comparison to diclofenac sodium) was “much better topical tolerance, e.g. ocular tolerance, and efficacy”. The “efficacy / degree of inflammation (in words)” value in data set [2] (0.05% diclofenac potassium versus 0.1% diclofenac sodium) is recorded as “almost totally suppressed”. For the same compound, the “fold efficacy of diclofenac sodium” value in data set [2] (taking into account 0.1% versus 0.05% drug concentration) is on record as “more than five fold”. In the data set on uveitis, the “efficacy in all the aforementioned animal models (in words)” value was “better efficacy”.
